According to ChEMBL document CHEMBL4311961, “Inhaled Janus Kinase (JAK) inhibitors for the treatment of asthma” (Bioorg Med Chem Lett, 2019):
In brackets after ≈: the same amount, converted by molar mass. Values belong to the compound of their own block, whether it stands above or below them.

What was measured:
[1] = Apparent permeability from apical to basolateral side in MDCK cells; assay type: ADME, cell-based, Canis lupus familiaris; conditions: dog
[2] = Kinetic solubility of the compound at pH 7.4; assay type: physicochemical; conditions: buffer, read-out: Kinetic_solubility
[3] = target: Janus Kinase (JAK) (Homo sapiens) (UniProt P52333+P23458+O60674+P29597)
Description: Binding affinity to JAK in human PBMC assessed as half life measured after compound washout was out

Rattus norvegicus [4] = test: In vivo inhibition of eosinophils in rat bronchoalveolar lavage fluid at 4.76 ug/kg administered as dry powder inhalation relative to control; assay type: functional; conditions: inhaled or nasal
Rattus norvegicus [5] = test: In vivo inhibition of eosinophils in rat bronchoalveolar lavage fluid at 0.6 ug/kg administered as dry powder inhalation relative to control; assay type: functional; conditions: inhaled or nasal
[6] = Dissociation constant, pKa of compound; assay type: physicochemical
Mus musculus = test: In vivo inhibition of IL13 induced STAT6 phosphorylation in mouse lung administered as i.t dose relative to ocntrol; assay type: functional

Papp A→B [1]: 2.7 ×10⁻⁶ cm/s
solubility kinetic [2]: 34 µM (≈ 20.8 µg/mL)
SMILES: CN(CCC#N)C1CCN(C(=O)Cn2cc(NC(=O)c3cnn4cccnc34)c(-c3cc(Cl)ccc3OC(F)F)n2)CC1

T1/2 [3]: 9 h
SMILES: CCc1cc(O)c(F)cc1-c1ccc2c(-c3nc4c([nH]3)CCN(C(=O)c3cnc(N5CCCCC5)cn3)C4)n[nH]c2c1

SMILES: COC[C@H](C(=O)Nc1cccc2c(-c3nc(Nc4cccc(S(C)(=O)=O)c4F)ncc3F)c[nH]c12)N1CCN(C)CC1 [LONDAMOCITINIB]
inhibition in vivo at 0.00476 mg/kg (Rattus norvegicus [4]): 61%
inhibition in vivo at 0.0006 mg/kg (Rattus norvegicus [5]): 68%

pKa [6]: 10.5
SMILES: CCc1cc(O)c(F)cc1-c1ccc2c(-c3nc4c([nH]3)CCN(C3CCN(C)CC3)C4)n[nH]c2c1
inhibition (INH) (Mus musculus): 60%
